Results from patent US3966930A, “Phenothiazine derivatives, compositions thereof and methods of preparation thereof” (Kefalas A/S, priority 1973, dated 1976).
Read-outs that look alike come from different tables or passages of the source.

Test system: methylphenidate
Assay: Methylphenidate antagonism in mice (rapid screening test for neuroleptic drugs)
Format: in vivo, NMRI male mice
Settings: Mus musculus, ip
Method: 40 grams of 4-(2-hydroxyethyl)piperidine were then added, and the mixture heated for 17 hours at 90° Centigrade. The mixture was cooled, poured into water, extracted with 500 milliliters of ether, the ether extract washed five times with water and dried over anhydrous magnesium sulphate. The oxalate of 2-trifluoromethyl-7-fluoro-10-(3'-(4-(2-hydroxyethyl)piperidin-1-yl)propyl)phenothiazine was precipitated from acetone-/ether (1:1) and melts at 76°-80° Centigrade. The pharmacological testing of the compounds of the present invention consisted of a standard and reliable, published test showing the neuroleptic activity of the compounds in that they antagonize central nervous stimulating compounds such as amphetamine and methylphenidate. […] 1971, 29, suppl. 4, 44.
The test may briefly be described as follows:
As animals were used NMRI male mice weighing 18-25 grams. 3 × 2 mice are used for each dose level.
2, 6 or 24 hours after i.p.injection of test substance, methylphenidate, 60 mg/kg, is injected s.c. After administration of methylphenidate the mice are placed in the observation cages, 2 in each cage, where they remain for 2, 6 or 24 hours. The cages are placed on corrugated paper, the corrugations facing upwards. It is examined whether or not the mice have been biting the corrugated paper. […] If one or more of the control pairs have also not been biting the corrugated paper, the test has to be repeated on a new set of mice. The following novel substances of Formula I were tested: […]
As reference substances were used the corresponding known phenothiazines having no fluorine substitution at position 7, namely fluphenazine, perphenazine, thioproperazine, acetophenazine and chlorpromazine respectively.

[1] = 2 h after i.p. injection of test substance, methylphenidate 60 mg/kg s.c., mice, read-out: Methylphenidate Antagonism ED50, 2h
[2] = 6 h after i.p. injection of test substance, methylphenidate 60 mg/kg s.c., mice, read-out: Methylphenidate Antagonism ED50, 6h
[3] = 24 h after i.p. injection of test substance, methylphenidate 60 mg/kg s.c., mice, read-out: Methylphenidate Antagonism ED50, 24h
[4] = 2 h, read-out: Methylphenidate Antagonism ED50, 2h
[5] = 6 h, read-out: Methylphenidate Antagonism ED50, 6h
[6] = 24 h, read-out: Methylphenidate Antagonism ED50, 24h

SMILES | ED50 [1] | ED50 [2] | ED50 [3] | ED50 [4] | ED50 [5] | ED50 [6]
CN1CCN(CCCN2c3ccc(F)cc3Sc3ccc(S(=O)(=O)N(C)C)cc32)CC1 [Lu 11-075, 2-dimethylsulfamoyl-7-fluoro-10-(3'-(4-methyl-piperazin-1-yl)-propyl)phenothiazine] | 0.7 mg/kg | 0.44 mg/kg | > 5 mg/kg |  |  | 
OCCN1CCN(CCCN2c3ccccc3Sc3ccc(Cl)cc32)CC1 [Perphenazine] |  |  |  | 0.08 mg/kg | 0.55 mg/kg | > 5 mg/kg
CC(=O)c1ccc2c(c1)N(CCCN1CCN(CCO)CC1)c1ccc(F)cc1S2 [Lu 11-087, 2-acetyl-7-fluoro-10-(3'-(4-(2-hydroxyethyl)-1-piperazinyl)-propyl)phenothiazine] | 0.06 mg/kg | 0.07 mg/kg | > 1.25 mg/kg |  |  | 
CN1CCN(CCCN2c3ccccc3Sc3ccc(S(=O)(=O)N(C)C)cc32)CC1 [Thioproperazine] | 0.28 mg/kg | 1.2 mg/kg | > 5 mg/kg |  |  | 
OCCN1CCN(CCCN2c3ccc(F)cc3Sc3ccc(C(F)(F)F)cc32)CC1 [Lu 10-116, 2-trifluoromethyl-7-fluoro-10-(3'-(4-(2-hydroxyethyl)-piperazine-1-yl)propyl)phenothiazine] | 0.11 mg/kg | 0.01 mg/kg | 0.08 mg/kg |  |  | 
OCCN1CCN(CCCN2c3ccc(F)cc3Sc3ccc(Cl)cc32)CC1 [Lu 10-125, 2-chloro-7-fluoro-10-(3'-(4-(2-hydroxyethyl)-1-piperazinyl)propyl)-phenothiazine] | 0.06 mg/kg | 0.05 mg/kg | > 5 mg/kg |  |  | 
OCCN1CCN(CCCN2c3ccccc3Sc3ccc(C(F)(F)F)cc32)CC1 [Fluphenazine] | 0.08 mg/kg | 0.03 mg/kg | > 2.5 mg/kg |  |  | 
CN(C)CCCN1c2ccccc2Sc2ccc(Cl)cc21 [Chlorpromazine] |  |  |  | 3.3 mg/kg | > 20 mg/kg | > 20 mg/kg
CN(C)CCCN1c2ccc(F)cc2Sc2ccc(Cl)cc21 [Lu 10-152, 2-chloro-7-fluoro-10-(3'-dimethylaminopropyl)-phenothiazine] | 2 mg/kg | 2.1 mg/kg | > 20 mg/kg |  |  | 
CC(=O)c1ccc2c(c1)N(CCCN1CCN(CCO)CC1)c1ccccc1S2 [Acetophenazine] | 0.2 mg/kg | 4.4 mg/kg | > 10 mg/kg |  |  | 
